Laboratory results from paper PMC12775434, “Ultra-large virtual screening unveils potent agonists of the neuromodulatory orphan receptor GPR139” (Nature Communications, 2025).
Where “and” joins values, the source holds several entries; their conditions need not be identical. Equal entries are not always repeated. Where two headings read alike, the source gives them in different places.

Assays:
GPR139 [1] = biological target: T1, GPR139 (Homo sapiens, UniProt Q6DWJ6); assay: Ca2+ mobilization assay, antagonist mode (EC80 800 nM Lundbeck Cmp 1a after 20 min preincubation), GPR139-CHOk1; type: cell-based
T1 sequence (Q6DWJ6 1-353): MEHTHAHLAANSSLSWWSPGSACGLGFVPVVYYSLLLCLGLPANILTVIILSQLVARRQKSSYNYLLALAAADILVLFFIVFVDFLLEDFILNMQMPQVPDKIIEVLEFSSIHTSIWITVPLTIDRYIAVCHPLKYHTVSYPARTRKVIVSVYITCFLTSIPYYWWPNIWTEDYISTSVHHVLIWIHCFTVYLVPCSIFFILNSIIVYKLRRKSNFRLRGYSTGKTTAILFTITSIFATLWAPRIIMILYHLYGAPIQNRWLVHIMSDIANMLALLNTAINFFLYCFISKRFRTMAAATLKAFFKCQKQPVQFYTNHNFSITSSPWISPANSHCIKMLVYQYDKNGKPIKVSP
How it was run: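 Antagonist mode: 800 nM (EC80) reference agonist Lundbeck Cmp 1a added following 20 min pre-incubation with 10 µM compound. GPR139-CHOk1 cells, Fluo-4 dye, probenecid-containing HEPES buffer pH 7.4; intracellular Ca2+ measured at 37 °C (ex 485, em 525 nm).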

GPR139 [2] = biological target: T1, GPR139; assay: Inositol monophosphate (IP1) accumulation assay, GPR139-CHOk1; type: cell-based; settings: for Emax: normalized to Lundbeck Cmp 1a, read-out: Emax (%) IP1
Description: Primary screening and pharmacological characterization of compounds were performed using a CHO-K1 cell line that stably expresses human GPR139 (GPR139-CHOk1). The GPR139-CHOk1 cell line was kindly provided by H. Lundbeck A/S, Denmark[24]. GPR139-CHOk1 cells were grown in Ham’s F-12 Kaighn’s Modification Medium (ThermoFisher #21127030) supplemented with 10% dialyzed fetal bovine serum (US origin, ThermoFisher #26400044), 100 units/mL Penicillin-Streptomycin (ThermoFisher #15140122), and 1 mg/mL Geneticin (ThermoFisher #11811031). […] M1R-CHOk1 cells were purchased from The Missouri S&T cDNA Resource Center (#CEM100TN00). M1R-CHOk1 cells were grown in Ham’s F12 Medium (ThermoFisher #21765029) supplemented with 10% fetal bovine serum (Brazilian origin, ThermoFisher #10270106), 100 units/mL Penicillin-Streptomycin, and 0.25 mg/mL Geneticin. HEK293A cells transiently transfected with GPR139 were used for additional pharmacological assessment of signaling pathways activated by GPR139. HEK239A cells were generously provided by Dr. Asuka Inoue, Tohoku University, Japan. HEK293A cells were grown in Dulbecco’s Modified Eagle Medium (ThermoFisher #31966047) supplemented with 10% dialyzed fetal bovine serum and 100 units/mL Penicillin-Streptomycin. Cell lines were maintained at 37 °C in humidified incubator equilibrated with 5% CO2.
HTRF IP-One Gq kit (Cisbio #62IPAPEC) was used to detect the accumulation of inositol monophosphate (IP1) as described in the work by Shehata et al.[26]. GPR139-CHOk1 cells were dissociated and resuspended in HEPES buffer. 50,000 cells in 5 µL and 5 µL test compounds diluted from DMSO stocks (final DMSO concentration of maximally 0.3%) in HEPES buffer supplemented with 40 mM LiCl were mixed in each well of white 384-well OptiPlate (PerkinElmer #6007290). The cells were incubated for 1 h at 37 °C. Then, 10 µL detection reagent composed of 2.5% Eu3 + -anti-IP1 antibody and 2.5% IP1-d2 diluted in lysis buffer was added, and the cells were incubated for 1 h at room temperature before measurements. Measurements were performed on EnVision Multimode Plate Reader (PerkinElmer) using excitation light of 340 nm and emission light of 615 nm and 665 nm. The time resolved-fluorescence resonance energy transfer (TR-FRET) 665 nm/615 nm ratio, which is inversely proportional to the IP1 accumulation, was used to determine the IP1 response.
Pharmacological data and statistical analyses were performed in GraphPad Prism v9–10 (Graphpad Software Inc., San Diego, CA), which are also specifically described in the figure and table legends. The functional assay responses were normalized to buffer (0%) and Lundbeck Cmp 1a or JNJ-63533054 (100%), for Ca^2+ and IP1 experiments in the GPR139-CHOk1 stable cell line or Ca^2+, G protein activation, and arrestin-3 recruitment experiments in the HEK293A cells transiently transfected with GPR139, respectively. Data are from at least three independent experiments, unless stated otherwise. Concentration-response curves were fitted applying non-linear regression using the log (agonist) versus response model with variable slope. ANOVA was applied for comparing results and determining statistical significance. Comparison of responses to the reference was performed using one-way ANOVA with Dunnett’s multiple comparisons test at significance threshold of p < 0.05. Comparison of responses across assays and ligands was performed using two-way ANOVA with Tukey’s multiple comparisons test at a significance threshold of p < 0.05.

[3] = log [Compound] M -4.5, replicate experiments
[4] = log [Compound] M -5.0, replicate experiments
[5] = log [Compound] M -5.5, replicate experiments
[6] = log [Compound] M -6.0, replicate experiments
[7] = log [Compound] M -6.5, replicate experiments
[8] = log [Compound] M -7.0, replicate experiments
[9] = log [Compound] M -7.5, replicate experiments
[10] = log [Compound] M -8.0, replicate experiments

SMILES	Emax (GPR139 [2]; Supplementary Table 2)	IP1 response (% of Cmp 1a) (GPR139 [2]; [3])	IP1 response (% of Cmp 1a) (GPR139 [2]; [4])	IP1 response (% of Cmp 1a) (GPR139 [2]; [5])	IP1 response (% of Cmp 1a) (GPR139 [2]; [6])	IP1 response (% of Cmp 1a) (GPR139 [2]; [7])	IP1 response (% of Cmp 1a) (GPR139 [2]; [8])	IP1 response (% of Cmp 1a) (GPR139 [2]; [9])	IP1 response (% of Cmp 1a) (GPR139 [2]; [10])	further results
Cc1cc(-c2nc(CC(=O)NC(C)c3ccccc3)no2)sc1C (stereo not drawn) [Compound 1, CC(NC(=O)CC1=NOC(=N1)C2=CC(C)=C(C)S2)C=3C=CC=CC3]	114 ± 5%	99 % of Cmp 1a and 115 % of Cmp 1a and 112 % of Cmp 1a and 118 % of Cmp 1a	92 % of Cmp 1a and 116 % of Cmp 1a and 103 % of Cmp 1a and 95 % of Cmp 1a	125 % of Cmp 1a and 86 % of Cmp 1a and 77 % of Cmp 1a and 96 % of Cmp 1a	63 % of Cmp 1a and 74 % of Cmp 1a and 39 % of Cmp 1a and 72 % of Cmp 1a	35 % of Cmp 1a and 29 % of Cmp 1a and 17 % of Cmp 1a and 40 % of Cmp 1a	21 % of Cmp 1a and 14 % of Cmp 1a and 6 % of Cmp 1a and 18 % of Cmp 1a	-5 % of Cmp 1a and 4 % of Cmp 1a and 0.66 % of Cmp 1a and 5.34 % of Cmp 1a	1.43 % of Cmp 1a and -2.78 % of Cmp 1a and 0.322 % of Cmp 1a and 4 % of Cmp 1a	Ca2+ signal (% of Cmp 1a) (GPR139 [1]; individual replicates (Supplementary Figure 1)): 6.536 % of Cmp 1a and 8.894 % of Cmp 1a and 14.743 % of Cmp 1a; EC50 (GPR139 [2]; Supplementary Table 2, mean ± SEM, read-out: pEC50 IP1 (converted)): 794 nM
Cc1cscc1-c1nc(CC(=O)NC(C)c2ccccc2)no1 (stereo not drawn) [Compound 1.1, CC(C1=CC=CC=C1)NC(CC2=NOC(C3=CSC=C3C)=N2)=O]	91 ± 10%	92 % of Cmp 1a and 58 % of Cmp 1a and 83 % of Cmp 1a and 87 % of Cmp 1a	112 % of Cmp 1a and 74 % of Cmp 1a and 80 % of Cmp 1a and 115 % of Cmp 1a	111 % of Cmp 1a and 87 % of Cmp 1a and 96 % of Cmp 1a and 100 % of Cmp 1a	125 % of Cmp 1a and 85 % of Cmp 1a and 89 % of Cmp 1a	112 % of Cmp 1a and 76 % of Cmp 1a (2×) and 95 % of Cmp 1a	71 % of Cmp 1a and 56 % of Cmp 1a and 38 % of Cmp 1a and 67 % of Cmp 1a	56 % of Cmp 1a and 27 % of Cmp 1a and 28 % of Cmp 1a and 45 % of Cmp 1a	22 % of Cmp 1a and 5 % of Cmp 1a and -0.544 % of Cmp 1a and 16 % of Cmp 1a	Ca2+ signal (% of Cmp 1a) (GPR139 [1]; individual replicates (Supplementary Figure 4)): -3.33 % of Cmp 1a and 11 % of Cmp 1a and -12 % of Cmp 1a; EC50 (GPR139 [2]; GPR139-CHOk1, read-out: EC50, IP1 accumulation): 50 nM; IP1 response (% of Cmp 1a) (GPR139 [2]; log [compound] M -4.5, individual replicates): 92 % of Cmp 1a and 58 % of Cmp 1a and 83 % of Cmp 1a and 87 % of Cmp 1a; IP1 response (% of Cmp 1a) (GPR139 [2]; log [compound] M -5.0, individual replicates): 112 % of Cmp 1a and 74 % of Cmp 1a and 80 % of Cmp 1a and 115 % of Cmp 1a; IP1 response (% of Cmp 1a) (GPR139 [2]; log [compound] M -5.5, individual replicates): 111 % of Cmp 1a and 87 % of Cmp 1a and 96 % of Cmp 1a and 100 % of Cmp 1a; IP1 response (% of Cmp 1a) (GPR139 [2]; log [compound] M -6.0, individual replicates): 125 % of Cmp 1a and 85 % of Cmp 1a and 89 % of Cmp 1a; IP1 response (% of Cmp 1a) (GPR139 [2]; log [compound] M -6.5, individual replicates): 112 % of Cmp 1a and 76 % of Cmp 1a (2×) and 95 % of Cmp 1a; IP1 response (% of Cmp 1a) (GPR139 [2]; log [compound] M -7.0, individual replicates): 71 % of Cmp 1a and 56 % of Cmp 1a and 38 % of Cmp 1a and 67 % of Cmp 1a; IP1 response (% of Cmp 1a) (GPR139 [2]; log [compound] M -7.5, individual replicates): 56 % of Cmp 1a and 27 % of Cmp 1a and 28 % of Cmp 1a and 45 % of Cmp 1a; IP1 response (% of Cmp 1a) (GPR139 [2]; log [compound] M -8.0, individual replicates): 22 % of Cmp 1a and 5 % of Cmp 1a and -0.544 % of Cmp 1a and 16 % of Cmp 1a
